Article PMC7914897, “Cytotoxic Potential of a-Azepano- and 3-Amino-3,4-SeCo-Triterpenoids” (International Journal of Molecular Sciences, 2021)
Where two headings read alike, the source gives them in different places.

What was measured:
[1] = system: NCI/ADR-RES (Ovarian cancer); assay: NCI-60 screen (SRB, 48 h); settings: Homo sapiens
SK-MEL-2 (Melanoma) = assay: NCI-60 screen (SRB, 48 h); settings: Homo sapiens
CNS cancer subpanel = assay: NCI-60 screen, subpanel; settings: Homo sapiens
[2] = system: NCI-H226 (NSC lung cancer); assay: NCI-60 screen (SRB, 48 h); settings: Homo sapiens
OVCAR-4 (Ovarian cancer) = assay: NCI-60 screen (SRB, 48 h); type: cell-based; settings: Homo sapiens
[3] = system: panel of approximately 60 cancer cell lines; assay: NCI-60 screen (SRB, 48 h), full panel
HS 578T (Breast cancer) = assay: NCI-60 screen (SRB, 48 h); settings: Homo sapiens
[4] = system: NCI-H23 (NSC lung cancer); assay: NCI-60 screen (SRB, 48 h); settings: Homo sapiens
M14 (Melanoma) = assay: NCI-60 screen (SRB, 48 h); settings: Homo sapiens
HCC-2998 (Colon cancer) = assay: NCI-60 screen (SRB, 48 h)
HOP-92 (NSC lung cancer) = assay: NCI-60 screen (SRB, 48 h); settings: Homo sapiens
MDA-MB-435 (Melanoma) = assay: NCI-60 screen (SRB, 48 h); type: cell-based; settings: Homo sapiens
HCT-15 (Colon cancer) = assay: NCI-60 screen (SRB, 48 h); settings: Homo sapiens
K-562 (Leukemia) = assay: NCI-60 screen (SRB, 48 h); settings: Homo sapiens
[5] = system: MDA-MB-31/ATCC (Breast cancer); assay: NCI-60 screen (SRB, 48 h); settings: Homo sapiens
SN12C (Renal cancer) = assay: NCI-60 screen (SRB, 48 h); settings: Homo sapiens
OVCAR-8 (Ovarian cancer) = assay: NCI-60 screen (SRB, 48 h); settings: Homo sapiens
OVCAR-5 (Ovarian cancer) = assay: NCI-60 screen (SRB, 48 h); settings: Homo sapiens
Leukemia subpanel = assay: cells; settings: Homo sapiens
LOX IMVI (Melanoma) = assay: NCI-60 screen (SRB, 48 h); type: cell-based; settings: Homo sapiens
U251 (CNS cancer) = assay: NCI-60 screen (SRB, 48 h); settings: Homo sapiens
UACC-257 (Melanoma) = assay: NCI-60 screen (SRB, 48 h); settings: Homo sapiens
MALME-3M (Melanoma) = assay: NCI-60 screen (SRB, 48 h); settings: Homo sapiens
SF-539 (CNS cancer) = assay: NCI-60 screen (SRB, 48 h); settings: Homo sapiens
SK-MEL-28 (Melanoma) = assay: NCI-60 screen (SRB, 48 h); settings: Homo sapiens
SK-OV-3 (Ovarian cancer) = assay: NCI-60 screen (SRB, 48 h); settings: Homo sapiens

SMILES: C=C(C)[C@@H]1CC[C@]2(C)[C@H](CC=C3[C@@H]4[C@@H](C)[C@H](C)CC[C@]4(CO)CC[C@]32C)[C@@]1(C)CCCN [Compound 19]
- GI50 [1]: 990 nM
- IC (TGI) ([1]; 48 h, read-out: TGI): 2170 nM
- CC50 ([1]; read-out: LC50): 4770 nM
- GI50 (SK-MEL-2 (Melanoma); SK-MEL-2): 1730 nM
- IC (TGI) (SK-MEL-2 (Melanoma); SK-MEL-2, 48 h, read-out: TGI): 5040 nM
- CC50 (SK-MEL-2 (Melanoma); SK-MEL-2, read-out: LC50): 18500 nM
- IC (TGI) (CNS cancer subpanel; 48 h, read-out: TGI MG_MID): 3260 nM
- GI50 (CNS cancer subpanel; read-out: GI50 MG_MID): 1150 nM
- CC50 (CNS cancer subpanel; read-out: LC50 MG_MID): 12600 nM
- GI50 ([2]; NCI-H226): 6720 nM
- IC (TGI) ([2]; NCI-H226, 48 h, read-out: TGI): 18300 nM
- CC50 ([2]; NCI-H226, read-out: LC50): 49900 nM
- IC (TGI) (OVCAR-4 (Ovarian cancer); OVCAR-4, 48 h): 2850 nM
- GI50 (OVCAR-4 (Ovarian cancer); OVCAR-4, read-out: GI50): 860 nM
- CC50 (OVCAR-4 (Ovarian cancer); OVCAR-4, read-out: LC50 (the source's name)): 25000 nM
- Positive Cytostatic Effect (cell lines with percent growth 0 to 50 / total) ([3]; 1 dose 10 µM): 20/60
- Positive Cytotoxic Effect (cell lines with percent growth < 0 / total) ([3]; 1 dose 10 µM): 28/60
- number of cancer cell lines the compound was active against ([3]; 1 dose 10 µM): 45 cell lines
- activity at 10 µM ([3]; Homo sapiens, 48 h, read-out: Mean Growth, %): -4.29%
- activity at 10 µM ([3]; Homo sapiens, 48 h, read-out: Range of Growth, %): -99 to 84.5%
- IC (TGI) ([3]; Homo sapiens, 48 h, read-out: TGI MG_MID60, average over all cell lines): 3890 nM
- GI50 ([3]; Homo sapiens, read-out: GI50 MG_MID60): 1420 nM
- GI50 ([3]; Homo sapiens, read-out: GI50 against all human tumor cell lines): < 10000 nM
- GI50 ([3]; Homo sapiens, read-out: GI50 against the most sensitive cell lines): 200 to 940 nM
- CC50 ([3]; Homo sapiens, read-out: LC50 MG_MID60, average over all cell lines): 17000 nM
- GI50 (HS 578T (Breast cancer)): 990 nM
- IC (TGI) (HS 578T (Breast cancer); 48 h, read-out: TGI): 2230 nM
- CC50 (HS 578T (Breast cancer); read-out: LC50): 5000 nM
- GI50 ([4]; NCI-H23): 1340 nM
- IC (TGI) ([4]; NCI-H23, 48 h, read-out: TGI): 4000 nM
- CC50 ([4]; NCI-H23, read-out: LC50): 17500 nM
- GI50 (M14 (Melanoma); M14): 850 nM
- IC (TGI) (M14 (Melanoma); M14, 48 h, read-out: TGI): 1760 nM
- CC50 (M14 (Melanoma); M14, read-out: LC50): 3640 nM
- Growth % of the Most Sensitive Cell Lines (HCC-2998 (Colon cancer); HCC-2998, 1 dose 10 µM): −93.35%
- GI50 (HCC-2998 (Colon cancer); Homo sapiens, HCC 2998): 870 nM
- IC (TGI) (HCC-2998 (Colon cancer); Homo sapiens, HCC 2998, 48 h, read-out: TGI): 1620 nM
- CC50 (HCC-2998 (Colon cancer); Homo sapiens, HCC 2998, read-out: LC50): 3020 nM
- GI50 (HOP-92 (NSC lung cancer); HOP-92): 1040 nM
- IC (TGI) (HOP-92 (NSC lung cancer); HOP-92, 48 h, read-out: TGI): 3460 nM
- CC50 (HOP-92 (NSC lung cancer); HOP-92, read-out: LC50): 23100 nM
- GI50 (MDA-MB-435 (Melanoma); MDA-MB-435): 950 nM
- IC (TGI) (MDA-MB-435 (Melanoma); MDA-MB-435, 48 h, read-out: TGI): 1810 nM
- CC50 (MDA-MB-435 (Melanoma); MDA-MB-435, read-out: LC50 (the source's name)): 3450 nM
- GI50 (HCT-15 (Colon cancer); HCT-15): 840 nM
- IC (TGI) (HCT-15 (Colon cancer); HCT-15, 48 h, read-out: TGI): 1760 nM
- CC50 (HCT-15 (Colon cancer); HCT-15, read-out: LC50): 3690 nM
- GI50 (K-562 (Leukemia); K562): 1220 nM
- IC (TGI) (K-562 (Leukemia); K562, 48 h, read-out: TGI): 3630 nM
- CC50 (K-562 (Leukemia); K562, read-out: LC50): > 50000 nM
- GI50 [5]: 960 nM
- IC (TGI) ([5]; 48 h, read-out: TGI): 1710 nM
- CC50 ([5]; read-out: LC50): 3040 nM
- GI50 (SN12C (Renal cancer)): 840 nM
- IC (TGI) (SN12C (Renal cancer); 48 h, read-out: TGI): 1670 nM
- CC50 (SN12C (Renal cancer); read-out: LC50): 3340 nM
- GI50 (OVCAR-8 (Ovarian cancer); OVCAR-8): 1160 nM
- IC (TGI) (OVCAR-8 (Ovarian cancer); OVCAR-8, 48 h, read-out: TGI): 2800 nM
- CC50 (OVCAR-8 (Ovarian cancer); OVCAR-8, read-out: LC50): > 50000 nM
- GI50 (OVCAR-5 (Ovarian cancer); OVCAR-5): 1760 nM
- IC (TGI) (OVCAR-5 (Ovarian cancer); OVCAR-5, 48 h, read-out: TGI): 6150 nM
- CC50 (OVCAR-5 (Ovarian cancer); OVCAR-5, read-out: LC50): 20900 nM
- IC (TGI) (Leukemia subpanel; 48 h, read-out: TGI MG_MID): 3810 nM
- GI50 (Leukemia subpanel; read-out: GI50 MG_MID): 1230 nM
- CC50 (Leukemia subpanel; read-out: LC50 MG_MID): 33200 nM
- IC (TGI) (LOX IMVI (Melanoma); 48 h): 1570 nM
- activity at 10 µM (LOX IMVI (Melanoma); 48 h, 1 dose 10 µM, read-out: Growth % of the Most Sensitive Cell Lines): -99%
- GI50 (LOX IMVI (Melanoma); read-out: GI50): 860 nM
- CC50 (LOX IMVI (Melanoma); read-out: LC50 (the source's name)): 2860 nM
- GI50 (U251 (CNS cancer); U-251): 920 nM
- IC (TGI) (U251 (CNS cancer); U-251, 48 h, read-out: TGI): 1820 nM
- GI50 (UACC-257 (Melanoma); UACC-257): 1070 nM
- IC (TGI) (UACC-257 (Melanoma); UACC-257, 48 h, read-out: TGI): 2210 nM
- CC50 (UACC-257 (Melanoma); UACC-257, read-out: LC50): 4680 nM
- GI50 (MALME-3M (Melanoma)): 730 nM
- IC (TGI) (MALME-3M (Melanoma); 48 h, read-out: TGI): 1420 nM
- CC50 (MALME-3M (Melanoma); read-out: LC50): 2740 nM
- GI50 (SF-539 (CNS cancer); SF-539): 950 nM
- IC (TGI) (SF-539 (CNS cancer); SF-539, 48 h, read-out: TGI): 1730 nM
- CC50 (SF-539 (CNS cancer); SF-539, read-out: LC50): 3170 nM
- GI50 (SK-MEL-28 (Melanoma); SK-MEL-28): 950 nM
- IC (TGI) (SK-MEL-28 (Melanoma); SK-MEL-28, 48 h, read-out: TGI): 1670 nM
- CC50 (SK-MEL-28 (Melanoma); SK-MEL-28, read-out: LC50): 2940 nM
- GI50 (SK-OV-3 (Ovarian cancer); SK-OV-3): 4420 nM
- IC (TGI) (SK-OV-3 (Ovarian cancer); SK-OV-3, 48 h, read-out: TGI): 12000 nM
- CC50 (SK-OV-3 (Ovarian cancer); SK-OV-3, read-out: LC50): 30500 nM
